“And” between values parts separate entries of the source, which are not always exact repeats. Equal entries are not always repeated. Toxic doses and inconclusive results are not listed. Rule for the calls: active = survival T/C of 150% or more; inactive = T/C below 125% in these data. Square brackets hold non-standard residues; d marks the D form. Peptide text beside a SMILES is read from it. * marks the point of attachment. ξ: configuration not given here. Cbz = O=C(OCc1ccccc1)*; ξNle = CCCCC(N)C(=O)O
Test system: BDF1 mice, B16 melanoma ip, median survival T/C
Experiment: NCI In Vivo Anticancer Drug Screen. Data for tumor model B16 Melanoma (intraperitoneal) in B6D2F1 (BDF1) mice
Conditions: endpoint: median survival time, higher = longer survival
In short: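 Values are ratios of treated (T) to vehicle-control (C) measurements of survival or tumor size in tumor-bearing mice.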

[1] = dose: 25.0 mg/kg/injection, schedule: Q01DX009 (ip), vehicle: Klucel (hydroxypropylcellulose) (HPC)
[2] = dose: 50.0 mg/kg/injection, schedule: Q01DX009 (ip), vehicle: Klucel (hydroxypropylcellulose) (HPC)
[3] = dose: 50.0 mg/kg/injection, schedule: Q01DX009 (ip), vehicle: saline with Tween-80
[4] = dose: 100.0 mg/kg/injection, schedule: Q01DX009 (ip), vehicle: saline with Tween-80
[5] = dose: 200.0 mg/kg/injection, schedule: Q01DX009 (ip), vehicle: saline with Tween-80
[6] = dose: 400.0 mg/kg/injection, schedule: Q01DX009 (ip), vehicle: saline with Tween-80
[7] = dose: 100.0 mg/kg/injection, schedule: Q01DX009 (ip), vehicle: Klucel (hydroxypropylcellulose) (HPC)
[8] = dose: 200.0 mg/kg/injection, schedule: Q01DX009 (ip), vehicle: Klucel (hydroxypropylcellulose) (HPC)
[9] = dose: 12.5 mg/kg/injection, schedule: Q01DX009 (ip), vehicle: saline with Tween-80
[10] = dose: 25.0 mg/kg/injection, schedule: Q01DX009 (ip), vehicle: saline with Tween-80

Measured: T/C

NC(=O)Nc1cc(NC(N)=O)cc(N(CCCl)CCCl)c1
inactive: dose: 1.56 mg/kg/injection, schedule: Q01DX009 (ip), vehicle: Klucel (hydroxypropylcellulose) (HPC) 88 % of control | dose: 3.13 mg/kg/injection, schedule: Q01DX009 (ip), vehicle: Klucel (hydroxypropylcellulose) (HPC) 101 % of control | dose: 6.25 mg/kg/injection, schedule: Q01DX009 (ip), vehicle: Klucel (hydroxypropylcellulose) (HPC) 91 % of control | dose: 12.5 mg/kg/injection, schedule: Q01DX009 (ip), vehicle: Klucel (hydroxypropylcellulose) (HPC) 96 % of control | [1] 108 % of control | [2] 98 % of control

COc1cccc2c1C(=O)c1c(O)c3c(c(O)c1C2=O)C[C@@](O)(C(=O)CN1CCOCC1)C[C@@H]3OC1CC(N)C(O)C(C)O1 (stereo partly drawn)
active: dose: 3.13 mg/kg/injection, schedule: Q01DX009 (ip), vehicle: water 159 % of control | dose: 6.25 mg/kg/injection, schedule: Q01DX009 (ip), vehicle: water 153 % of control | dose: 12.5 mg/kg/injection, schedule: Q01DX009 (ip), vehicle: water 157 % of control | dose: 25.0 mg/kg/injection, schedule: Q01DX009 (ip), vehicle: water 157 % of control

c1ccc(CN=C(c2ccccc2)c2ccccc2)cc1
inactive: dose: 100.0 mg/kg/injection, schedule: Q04DX003 (ip), vehicle: Klucel (hydroxypropylcellulose) (HPC) 100 % of control | dose: 200.0 mg/kg/injection, schedule: Q04DX003 (ip), vehicle: Klucel (hydroxypropylcellulose) (HPC) 95 % of control | dose: 400.0 mg/kg/injection, schedule: Q04DX003 (ip), vehicle: Klucel (hydroxypropylcellulose) (HPC) 100 % of control

CC[C@H]1CN2CCc3cc(OC)c(OC)cc3[C@@H]2C[C@@H]1C[C@H]1NCCc2cc(OC)c(OC)cc21
inactive: dose: 0.87 mg/kg/injection, schedule: Q01DX009 (ip), vehicle: saline 103 % of control and 104 % of control | dose: 1.75 mg/kg/injection, schedule: Q01DX009 (ip), vehicle: saline 100 % of control and 103 % of control | dose: 3.5 mg/kg/injection, schedule: Q01DX009 (ip), vehicle: saline 105 % of control and 111 % of control | dose: 7.0 mg/kg/injection, schedule: Q01DX009 (ip), vehicle: saline 116 % of control | dose: 7.8 mg/kg/injection, schedule: Q04DX003 (ip), vehicle: saline 108 % of control | dose: 11.2 mg/kg/injection, schedule: Q04DX003 (ip), vehicle: saline 98 % of control | dose: 16.0 mg/kg/injection, schedule: Q04DX003 (ip), vehicle: saline 107 % of control | dose: 22.9 mg/kg/injection, schedule: Q04DX003 (ip), vehicle: saline 104 % of control

CCCCC(NC(=O)OCc1ccccc1)C(=O)NCC(=O)OC (stereo not drawn) (Cbz-[ξNle]-Gly-OMe)
inactive: [3] 96 % of control | [4] 115 % of control | [5] 112 % of control | [6] 92 % of control

CCOc1ccccc1NC(=O)c1ccccc1Cl
inactive: [7] 106 % of control | [8] 106 % of control | dose: 400.0 mg/kg/injection, schedule: Q01DX009 (ip), vehicle: Klucel (hydroxypropylcellulose) (HPC) 93 % of control

C1CC[N-]CC1.CC(=N\O)/C(C)=N/O.CC(=N\O)/C(C)=N/O.[CH-]1CCCCC1.[Co+2]
inactive: [2] 97 % of control | [7] 94 % of control

CCN(CC)CCCNC(=S)NC(C)(C)CC(C)=O
inactive: dose: 75.0 mg/kg/injection, schedule: Q04DX003 (ip), vehicle: Klucel (hydroxypropylcellulose) (HPC) 95 % of control | dose: 150.0 mg/kg/injection, schedule: Q04DX003 (ip), vehicle: Klucel (hydroxypropylcellulose) (HPC) 92 % of control | dose: 300.0 mg/kg/injection, schedule: Q04DX003 (ip), vehicle: Klucel (hydroxypropylcellulose) (HPC) 95 % of control

COc1cccc(OC)c1OC(=O)/C=C\C(=O)Oc1c(OC)cccc1OC
inactive: dose: 75.0 mg/kg/injection, schedule: Q01DX009 (ip), vehicle: Klucel (hydroxypropylcellulose) (HPC) 100 % of control | dose: 150.0 mg/kg/injection, schedule: Q01DX009 (ip), vehicle: Klucel (hydroxypropylcellulose) (HPC) 100 % of control | dose: 300.0 mg/kg/injection, schedule: Q01DX009 (ip), vehicle: Klucel (hydroxypropylcellulose) (HPC) 100 % of control

N#C/C(=C\c1ccncc1)c1csc2ccccc12
inactive: [2] 88 % of control | [7] 89 % of control

O=C(/C=C/c1ccccc1)CC(O)(C(F)(F)F)C(F)(F)F
inactive: dose: 100.0 mg/kg/injection, schedule: Q04DX003 (sc), vehicle: olive oil, sesame oil, peanut oil 90 % of control | dose: 200.0 mg/kg/injection, schedule: Q04DX003 (sc), vehicle: olive oil, sesame oil, peanut oil 95 % of control | dose: 400.0 mg/kg/injection, schedule: Q04DX003 (sc), vehicle: olive oil, sesame oil, peanut oil 90 % of control

Cc1cc(NCCCCCCNc2cc(C)nc3ccc(N)cc23)c2cc(N)ccc2n1
inactive: dose: 2.25 mg/kg/injection, schedule: Q01DX009 (ip), vehicle: saline with Tween-80 104 % of control | dose: 4.5 mg/kg/injection, schedule: Q01DX009 (ip), vehicle: saline with Tween-80 102 % of control | dose: 9.0 mg/kg/injection, schedule: Q01DX009 (ip), vehicle: saline with Tween-80 104 % of control | dose: 18.0 mg/kg/injection, schedule: Q01DX009 (ip), vehicle: saline with Tween-80 122 % of control

CCCCOCN(COCCCC)C(C)Cc1ccccc1 (stereo not drawn)
inactive: [9] 95 % of control and 100 % of control | [10] 98 % of control and 104 % of control | [3] 99 % of control and 105 % of control | [4] 106 % of control and 110 % of control | [5] 90 % of control and 100 % of control

CC1(C)C2CCC1C(CO)C2 (stereo not drawn)
inactive: [2] 100 % of control | [7] 103 % of control | [8] 90 % of control

Cc1ccc(CNc2ccc(Br)cc2)cc1
inactive: [7] 94 % of control | [8] 91 % of control

O=[N+]([O-])O.O=[N+]([O-])O.[O]=[Zr]
inactive: dose: 12.5 mg/kg/injection, schedule: Q04DX003 (ip), vehicle: saline 97 % of control | dose: 25.0 mg/kg/injection, schedule: Q04DX003 (ip), vehicle: saline 90 % of control | dose: 50.0 mg/kg/injection, schedule: Q04DX003 (ip), vehicle: saline 95 % of control

Nc1nc(N)nc(-c2ccc([N+](=O)[O-])o2)n1
inactive: [4] 103 % of control | [5] 97 % of control | [6] 90 % of control

CC(NC(=O)CN(C)C(=O)OCc1ccccc1)C(=O)O (stereo not drawn)
inactive: [3] 99 % of control | [4] 98 % of control | [5] 97 % of control

CC(=O)OCC(OC(C)=O)C(OC(C)=O)C(OC(C)=O)C(C#N)OC(C)=O (stereo not drawn)
inactive: dose: 100.0 mg/kg/injection, schedule: Q01DX005 (ip), vehicle: saline with Tween-80 104 % of control | dose: 100.0 mg/kg/injection, schedule: Q04DX003 (ip), vehicle: saline with Tween-80 86 % of control | dose: 200.0 mg/kg/injection, schedule: Q01DX005 (ip), vehicle: saline with Tween-80 100 % of control | dose: 200.0 mg/kg/injection, schedule: Q04DX003 (ip), vehicle: saline with Tween-80 97 % of control | dose: 400.0 mg/kg/injection, schedule: Q01DX005 (ip), vehicle: saline with Tween-80 97 % of control

O=C(O)c1ccccc1C(=O)Nc1ccc(Cl)cc1
inactive: [4] 105 % of control | [5] 94 % of control

CC(NC1=NCCO1)c1cccc2ccccc12 (stereo not drawn)
inactive: dose: 8.0 mg/kg/injection, schedule: Q04DX003 (ip), vehicle: saline with Tween-80 102 % of control | dose: 12.0 mg/kg/injection, schedule: Q04DX003 (ip), vehicle: saline with Tween-80 115 % of control | [9] 102 % of control | dose: 18.0 mg/kg/injection, schedule: Q04DX003 (ip), vehicle: saline with Tween-80 102 % of control | [10] 106 % of control | [3] 93 % of control | dose: 50.0 mg/kg/injection, schedule: Q04DX003 (ip), vehicle: saline with Tween-80 123 % of control

CCC/C(C)=C(/C#N)CC
inactive: [1] 105 % of control | [2] 103 % of control | [7] 109 % of control

CC[C@@H](O)C[C@H]1CCC[C@@]2(C[C@@H]3OC(=O)/C=C/[C@@](C)(O)[C@@H](O)[C@H](C)[C@@H](O)[C@H](OC4CCC(N(C)C)C(C)O4)[C@@H](O)[C@](C)(O)CCCCC/C=C/[C@@H]4CC(C)(C)O[C@@]4(O)C[C@H](O2)[C@H]3C)O1 (stereo partly drawn)
inactive: dose: 4.0 micrograms/kg/injection, schedule: Q01DX009 (ip), vehicle: saline 101 % of control | dose: 8.0 micrograms/kg/injection, schedule: Q01DX009 (ip), vehicle: saline 97 % of control | dose: 16.0 micrograms/kg/injection, schedule: Q01DX009 (ip), vehicle: saline 109 % of control | dose: 32.0 micrograms/kg/injection, schedule: Q01DX009 (ip), vehicle: saline 93 % of control

CC(N)C(=O)NC(CO)C(=O)O (stereo not drawn)
inactive: [4] 109 % of control | [5] 97 % of control | [6] 97 % of control
